Read-outs that look alike come from different tables or passages of the source. Starred links: 1 amine or outer side, 2 acyl side, 3 side chain; linkers in the order of their positions; H or OH if unused. Non-standard residues stand in square brackets, D forms with d. Residues, ends and D or L forms follow the SMILES beside them. Groups on a side chain read outwards from the residue. *: point of attachment. C18 diacid = O=C(O)CCCCCCCCCCCCCCCCC(=O)*; γGlu = O=C(O)[C@H](CCC(=O)[*:2])N[*:1]; εLys = N[C@@H](CCCCN[*:1])C(=O)[*:2]; AEEA = NCCOCCOCC(=O)O; Aib = CC(C)(N)C(=O)O
Assays:
human GIP receptor = biological target: T1, human GIP receptor (Homo sapiens, UniProt P48546); experiment: In vitro functional potency, CRE luciferase reporter gene assay, whole BHK cells expressing hGIPR; type: cell-based; details: BHK CRE luc2P hGIPR cells
T1 construct: expressed in transfected cells; host or cells: BHK (parent line BHKTS13), clone BHK CRE luc2P hGIPR
T1 sequence (P48546 22-466): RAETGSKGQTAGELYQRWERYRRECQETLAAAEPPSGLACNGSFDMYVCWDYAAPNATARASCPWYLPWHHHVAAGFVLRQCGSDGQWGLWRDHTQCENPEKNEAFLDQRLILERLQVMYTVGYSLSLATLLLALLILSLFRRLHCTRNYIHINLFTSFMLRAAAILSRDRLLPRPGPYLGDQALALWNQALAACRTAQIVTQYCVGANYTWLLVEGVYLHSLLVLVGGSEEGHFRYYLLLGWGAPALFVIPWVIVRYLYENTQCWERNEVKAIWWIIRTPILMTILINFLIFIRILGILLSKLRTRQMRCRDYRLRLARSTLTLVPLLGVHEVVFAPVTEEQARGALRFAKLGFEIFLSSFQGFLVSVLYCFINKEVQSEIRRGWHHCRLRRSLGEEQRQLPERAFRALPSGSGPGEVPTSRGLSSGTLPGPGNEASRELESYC
Method: (§1) The in vitro functional potency is the measure of target receptor activation in a whole cell assay.
(§2) In vitro functional potency was determined by measuring the response of the target receptor in a reporter gene assay in individual cell lines. […] When the respective receptor is activated, it results in the production of cAMP, which in turn results in expression of the luciferase protein. When assay incubation is completed, luciferase substrate (luciferin) is added resulting in the enzymatic conversion of luciferin to oxyluciferin and producing bioluminescence. The luminescence is measured as the readout for the assay.
(§3) The cells lines used in these assays were BHK cells with BHKTS13 as a parent cell line. The cell lines were derived from a clone containing the CRE luciferase element and were established by further transfection with the respective human receptor to obtain the relevant cell line: BHK CRE luc2P hGLP-1R or BHK CRE luc2P hGIPR. The cells were cultured at 37° C. with 5% CO2 in Cell Culture Medium. They were aliquoted and stored in liquid nitrogen. The cells were kept in continuous culture and were seeded out the day before each assay.
(§4) GLP-1R Cell Culture Medium consisted of DMEM medium with 10% FBS, 500 μg/mL G418, and 300 μg/mL hygromycin. GIPR Cell Culture Medium consisted of DMEM medium with 10% FBS, 400 μg/mL G418, and 300 μg/mL hygromycin. Assay Buffer consisted of DMEM w/o phenol red, 10 mM Hepes, 1× Glutamax. 1% ovalbumin, and 0.1% Pluronic F-68 with the addition of HSA at twice the final assay concentration.
(§5) Procedure • 1) Cells were plated at 5000 cells/well and incubated overnight in the assay plate. • 2) Cells were washed once in DPBS. • 3) Stocks of the test compounds and reference compounds in concentrations ranging from […] were diluted 1:150 in Assay Buffer. Compounds were then diluted 1:10 in column 1 of a 96 deep well dilution plate and then carried across the row creating a 3.5 fold, 12 point dilution curve. • 4) Assay Buffer (50 μl aliquot) with or without HSA was added to each well in the assay plate. • 5) A 50 μl aliquot of compound or blank was transferred from the dilution plate to the assay plate containing the Assay Buffer with or without HSA. • 6) The assay plate was incubated for 3 h in a 5% CO2 incubator at 37° C. • 7) The cells were washed once with DPBS. • 8) A 100 μl aliquot of DPBS was added to each well of the assay plate. • 9) A 100 μl aliquot of steadylite plus reagent (light sensitive) was added to each well of the assay plate. • 10) Each assay plate was covered with aluminum foil to protect it from light and shaken at 250 RPM for 30 min at room temperature. • 11) Each assay plate was read in a microtiter plate reader.
(§6) The data from the microtiter plate reader was first regressed in an Excel in order to calculate the x-axis, log scale concentrations based on the individual test compound's stock concentration and the dilutions of the assay. […] The software performs a non-linear regression (log(agonist) vs response). A minimum of two replicates was measured for each sample. The reported values are averages of the replicates.

human GLP-1 receptor = biological target: T2, human GLP-1 receptor (Homo sapiens, UniProt P43220); experiment: In vitro functional potency, CRE luciferase reporter gene assay, whole BHK cells expressing hGLP-1R; type: cell-based; details: BHK CRE luc2P hGLP-1R cells
T2 construct: expressed in transfected cells; host or cells: BHK (parent line BHKTS13), clone BHK CRE luc2P hGLP-1R
T2 sequence (P43220 24-463): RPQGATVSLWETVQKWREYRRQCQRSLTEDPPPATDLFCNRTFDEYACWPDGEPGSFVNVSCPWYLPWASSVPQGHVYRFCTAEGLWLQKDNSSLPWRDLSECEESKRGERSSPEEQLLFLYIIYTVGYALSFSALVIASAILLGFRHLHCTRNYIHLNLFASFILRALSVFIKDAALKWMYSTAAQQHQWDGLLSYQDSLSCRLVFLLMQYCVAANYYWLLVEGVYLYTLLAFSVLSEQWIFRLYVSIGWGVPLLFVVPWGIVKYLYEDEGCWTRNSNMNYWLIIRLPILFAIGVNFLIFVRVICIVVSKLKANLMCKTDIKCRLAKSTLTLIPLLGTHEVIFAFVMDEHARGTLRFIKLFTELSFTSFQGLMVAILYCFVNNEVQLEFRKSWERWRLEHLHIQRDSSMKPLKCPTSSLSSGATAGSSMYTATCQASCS
Method: as §1, §2, §3, §4, §5, §6

[1] = 0% HSA, read-out: hGIPR, CRE Luc 0% HSA EC50
[2] = hGIPR, CRE Luc 1% HSA EC50, 1% HSA
[3] = 0% HSA, read-out: hGLP-1R, CRE Luc 0% HSA EC50
[4] = hGLP-1R, CRE Luc 1% HSA EC50, 1% HSA

SMILES | EC50 (human GIP receptor; [1]) [nM] | EC50 (human GIP receptor; [2]) [nM] | EC50 (human GLP-1 receptor; [3]) [nM] | EC50 (human GLP-1 receptor; [4]) [nM]
CC(C)C[C@H](NC(=O)[C@H](CC(C)C)NC(=O)[C@H](Cc1c[nH]c2ccccc12)NC(=O)[C@H](CC(N)=O)NC(=O)[C@@H](NC(=O)[C@H](Cc1ccccc1)NC(=O)[C@H](C)NC(=O)[C@H](CCC(N)=O)NC(=O)[C@H](C)NC(=O)[C@H](C)NC(=O)[C@H](CCC(N)=O)NC(=O)[C@H](CCCCNC(=O)[C@@H](N)CCCCNC(=O)[C@@H](N)CCCCNC(=O)CC[C@H](NC(=O)CCCCCCCCCCCCCCCCC(=O)O)C(=O)O)NC(=O)[C@H](CCC(=O)O)NC(=O)[C@H](CC(C)C)NC(=O)[C@H](Cc1ccc(O)cc1)NC(=O)[C@H](Cc1ccc(O)cc1)NC(=O)[C@H](CO)NC(=O)[C@H](Cc1ccc(O)cc1)NC(=O)[C@H](CC(=O)O)NC(=O)[C@H](CO)NC(=O)[C@@H](NC(=O)[C@H](Cc1ccccc1)NC(=O)[C@@H](NC(=O)CNC(=O)[C@H](CCC(=O)O)NC(=O)C(C)(C)NC(=O)[C@@H](N)Cc1ccc(O)cc1)[C@@H](C)O)[C@@H](C)O)C(C)C)C(=O)N[C@@H](C)C(=O)NCC(=O)NCC(=O)N1CCC[C@H]1C(=O)N[C@@H](CO)C(=O)N[C@@H](CO)C(=O)NCC(=O)N[C@@H](C)C(=O)N1CCC[C@H]1C(=O)N1CCC[C@H]1C(=O)N1CCC[C@H]1C(=O)N[C@@H](CO)C(=O)O [Compound No. 5] (H-Y[Aib]EGTFTSDYSYYLEK([εLys-εLys-γGlu-C18 diacid])QAAQAFVNWLLAGGPSSGAPPPS-OH; N-terminus assumed) | 0.0142 | 0.362 | 0.0094 | 0.625
CC[C@H](C)[C@H](NC(=O)[C@H](CO)NC(=O)[C@H](Cc1ccc(O)cc1)NC(=O)[C@H](CC(=O)O)NC(=O)[C@H](CO)NC(=O)[C@@H](NC(=O)[C@H](Cc1ccccc1)NC(=O)[C@@H](NC(=O)CNC(=O)[C@H](CCC(=O)O)NC(=O)C(C)(C)NC(=O)[C@@H](N)Cc1ccc(O)cc1)[C@@H](C)O)[C@@H](C)O)C(=O)N[C@@H](Cc1ccc(O)cc1)C(=O)N[C@@H](CC(C)C)C(=O)N[C@@H](CCC(=O)O)C(=O)N[C@@H](CCCCNC(=O)[C@@H](N)CCCCNC(=O)[C@@H](N)CCCCNC(=O)CC[C@H](NC(=O)CCCCCCCCCCCCCCCCC(=O)O)C(=O)O)C(=O)N[C@@H](CCC(N)=O)C(=O)N[C@@H](C)C(=O)N[C@@H](C)C(=O)N[C@@H](CCCNC(=N)N)C(=O)N[C@@H](CCC(=O)O)C(=O)N[C@@H](Cc1ccccc1)C(=O)N[C@H](C(=O)N[C@@H](CC(N)=O)C(=O)N[C@@H](Cc1c[nH]c2ccccc12)C(=O)N[C@@H](CC(C)C)C(=O)N[C@@H](CC(C)C)C(=O)N[C@@H](C)C(=O)NCC(=O)NCC(=O)N1CCC[C@H]1C(=O)N[C@@H](CO)C(=O)N[C@@H](CO)C(=O)NCC(=O)N[C@@H](C)C(=O)N1CCC[C@H]1C(=O)N1CCC[C@H]1C(=O)N1CCC[C@H]1C(=O)N[C@@H](CO)C(N)=O)C(C)C [Compound No. 6] (H-Y[Aib]EGTFTSDYSIYLEK([εLys-εLys-γGlu-C18 diacid])QAAREFVNWLLAGGPSSGAPPPS-NH2) | 0.0185 | 0.434 | 0.0034 | 0.243
CC[C@H](C)[C@H](NC(=O)[C@H](CO)NC(=O)[C@H](Cc1ccc(O)cc1)NC(=O)[C@H](CC(=O)O)NC(=O)[C@H](CO)NC(=O)[C@@H](NC(=O)[C@H](Cc1ccccc1)NC(=O)[C@@H](NC(=O)CNC(=O)[C@H](CCC(=O)O)NC(=O)C(C)(C)NC(=O)[C@@H](N)Cc1ccc(O)cc1)[C@@H](C)O)[C@@H](C)O)C(=O)N[C@@H](Cc1ccc(O)cc1)C(=O)N[C@@H](CC(C)C)C(=O)N[C@@H](CCC(=O)O)C(=O)N[C@@H](CCCCNC(=O)COCCOCCNC(=O)COCCOCCNC(=O)CC[C@H](NC(=O)CCCCCCCCCCCCCCCCC(=O)O)C(=O)O)C(=O)N[C@@H](CCC(N)=O)C(=O)N[C@@H](C)C(=O)N[C@@H](C)C(=O)N[C@@H](CCCNC(=N)N)C(=O)N[C@@H](CCC(=O)O)C(=O)N[C@@H](Cc1ccccc1)C(=O)N[C@H](C(=O)N[C@@H](CC(N)=O)C(=O)N[C@@H](Cc1c[nH]c2ccccc12)C(=O)N[C@@H](CC(C)C)C(=O)N[C@@H](CC(C)C)C(=O)N[C@@H](C)C(=O)NCC(=O)NCC(=O)N1CCC[C@H]1C(=O)N[C@@H](CO)C(=O)N[C@@H](CO)C(=O)NCC(=O)N[C@@H](C)C(=O)N1CCC[C@H]1C(=O)N1CCC[C@H]1C(=O)N1CCC[C@H]1C(=O)N[C@@H](CO)C(N)=O)C(C)C [Compound No. 7] (H-Y[Aib]EGTFTSDYSIYLEK([AEEA-AEEA-γGlu-C18 diacid])QAAREFVNWLLAGGPSSGAPPPS-NH2) | 0.0287 | 0.687 | 0.0042 | 0.513
CC[C@H](C)[C@H](NC(=O)[C@H](Cc1ccccc1)NC(=O)[C@H](CCC(=O)O)NC(=O)[C@H](CCCNC(=N)N)NC(=O)[C@H](C)NC(=O)[C@H](C)NC(=O)[C@H](CCC(N)=O)NC(=O)[C@H](CCCCNC(=O)[C@@H](N)CCCCNC(=O)[C@@H](N)CCCCNC(=O)CC[C@H](NC(=O)CCCCCCCCCCCCCCCCC(=O)O)C(=O)O)NC(=O)[C@H](CCC(=O)O)NC(=O)[C@H](CC(C)C)NC(=O)[C@H](Cc1ccc(O)cc1)NC(=O)[C@@H](NC(=O)[C@H](CO)NC(=O)[C@H](Cc1ccc(O)cc1)NC(=O)[C@H](CC(=O)O)NC(=O)[C@H](CO)NC(=O)[C@@H](NC(=O)[C@H](Cc1ccccc1)NC(=O)[C@@H](NC(=O)CNC(=O)[C@H](CCC(=O)O)NC(=O)C(C)(C)NC(=O)[C@@H](N)Cc1ccc(O)cc1)[C@@H](C)O)[C@@H](C)O)[C@@H](C)CC)C(=O)N[C@@H](CC(N)=O)C(=O)N[C@@H](Cc1c[nH]c2ccccc12)C(=O)N[C@@H](CC(C)C)C(=O)N[C@@H](CC(C)C)C(=O)N[C@@H](C)C(=O)NCC(=O)NCC(=O)N1CCC[C@H]1C(=O)N[C@@H](CO)C(=O)N[C@@H](CO)C(=O)NCC(=O)N[C@@H](C)C(=O)N1CCC[C@H]1C(=O)N1CCC[C@H]1C(=O)N1CCC[C@H]1C(=O)N[C@@H](CO)C(N)=O [Compound No. 8] (H-Y[Aib]EGTFTSDYSIYLEK([εLys-εLys-γGlu-C18 diacid])QAAREFINWLLAGGPSSGAPPPS-NH2) | 0.0067 | 0.191 | 0.0023 | 0.0821
